Assays:
Type in all cases: functional
[1] = organism: Rattus norvegicus; assay: Ability to enhance stimulated release of AcCh from striatum region of rat brain
[2] = tested on: Rattus norvegicus; assay: Tested for rat passive avoidance hypoxia induced amnesia at 0.1 mg/kg administered subcutaneously; details: route subcutaneous
[3] = organism: Rattus norvegicus; assay: Tested for rat passive avoidance hypoxia induced amnesia (no hypoxia)
[4] = tested on: Rattus norvegicus; assay: Tested for rat passive avoidance hypoxia induced amnesia at 30.0 mg/kg administered subcutaneously (p<0.05); details: route subcutaneous
[5] = tested on: Rattus norvegicus; assay: Tested for rat passive avoidance hypoxia induced amnesia at 0.3 mg/kg administered subcutaneously.; details: route subcutaneous
[6] = tested on: Rattus norvegicus; assay: Tested for rat passive avoidance hypoxia induced amnesia at 10.0 mg/kg administered subcutaneously (p<0.025); details: route subcutaneous
[7] = tested on: Rattus norvegicus; assay: Tested for rat passive avoidance hypoxia induced amnesia at 100 mg/kg administered subcutaneously; details: route subcutaneous
[8] = tested on: Rattus norvegicus; assay: Tested for rat passive avoidance hypoxia induced amnesia at 1.0 mg/kg administered subcutaneously; details: route subcutaneous
[9] = tested on: Rattus norvegicus; assay: Tested for rat passive avoidance hypoxia induced amnesia at 3.0 mg/kg administered subcutaneously (p<0.025); details: route subcutaneous

| SMILES | Release [1] [%] | other results |
| --- | --- | --- |
| Cl.O=C(O)CC1(Cc2ccncc2)C(=O)N(c2ccccc2)c2ccccc21 (centres undefined) | -2 | – |
| CCCCCCC1(Cc2ccncc2)C(=O)N(c2ccccc2)c2ccccc21 (centres undefined) | 6 | – |
| CCOC(=O)CC1(Cc2ccncc2)C(=O)N(c2ccccc2)c2ccccc21.Cl (centres undefined) | 21 | – |
| O=C1N(c2ccccc2)c2ccccc2C1(Cc1ccncc1)Cc1ccncc1 [LINOPIRDINE] | 100 | – |
| CC(=O)CCCC1(Cc2ccncc2)C(=O)N(c2ccccc2)c2ccccc21.Cl (centres undefined) | 18 | – |
| CCOC(=O)CCCC1(Cc2ccncc2)C(=O)N(c2ccccc2)c2ccccc21.Cl (stereo in doubt; 8) | 99 | Median retension latency [2]: 79.5; Median retension latency [3]: 300; Median retension latency [4]: 201; Median retension latency [5]: 37.5; Median retension latency [6]: 136; Median retension latency [7]: 34; Median retension latency [8]: 89.5; Median retension latency [9]: 112 |
| CCOC(=O)CCCC1(Cc2ccncc2)C(=O)N(c2ccccc2)c2ccccc21.Cl (racemic) | 109 | – |
| Cl.N#CCCCCC1(Cc2ccncc2)C(=O)N(c2ccccc2)c2ccccc21 (centres undefined) | 133 | – |
| CC(=O)OCCCCC1(Cc2ccncc2)C(=O)N(c2ccccc2)c2ccccc21.Cl (centres undefined) | 27 | – |
| Cl.N#CCCCCCC1(Cc2ccncc2)C(=O)N(c2ccccc2)c2ccccc21 (centres undefined) | 74 | – |
| CCOCCCCC1(Cc2ccncc2)C(=O)N(c2ccccc2)c2ccccc21.Cl (centres undefined) | 17 | – |
| CN(C)CCC1(Cc2ccncc2)C(=O)N(c2ccccc2)c2ccccc21.Cl.Cl (centres undefined) | 3 | – |
| O=C1N(c2ccccc2)c2ccccc2C1(CCCO)Cc1ccncc1 (centres undefined) | 27 | – |
| CCOC(=O)/C=C/CC1(Cc2ccncc2)C(=O)N(c2ccccc2)c2ccccc21.Cl (centres undefined) | 41 | – |
| Cl.O=C1N(c2ccccc2)c2ccccc2C1(CCO)Cc1ccncc1 (centres undefined) | 12 | – |
| CCOC(=O)CCCCC1(Cc2ccncc2)C(=O)N(c2ccccc2)c2ccccc21.Cl (centres undefined) | 3 | – |

| SMILES | Release [1] [%] | other results |
| --- | --- | --- |
| Cl.N#CCCCC1(Cc2ccncc2)C(=O)N(c2ccccc2)c2ccccc21 (centres undefined) | 74 | – |
| COC(=O)CCC1(Cc2ccncc2)C(=O)N(c2ccccc2)c2ccccc21.Cl (centres undefined) | 51 | – |
| Cl.O=C(CCCC1(Cc2ccncc2)C(=O)N(c2ccccc2)c2ccccc21)c1ccc(F)cc1 (centres undefined) | 29 | – |
| Cl.N#CCC1(Cc2ccncc2)C(=O)N(c2ccccc2)c2ccccc21 (centres undefined) | 11 | – |
| CCCS(=O)(=O)CCCCC1(Cc2ccncc2)C(=O)N(c2ccccc2)c2ccc(Cl)cc21.Cl (centres undefined) | 8 | – |
| CCOC(=O)CCCC1(Cc2ccncc2)C(=O)N(c2ccccc2)c2ccccc21.Cl (single isomer, unassigned; (-)) | 3 | – |
| O=C1C(Cc2ccncc2)c2ccccc2N1c1ccccc1 (centres undefined) | 0 | – |
| Cl.NC(=O)CCCC1(Cc2ccncc2)C(=O)N(c2ccccc2)c2ccccc21 (centres undefined) | 26 | – |
| CCCSCCCCC1(Cc2ccncc2)C(=O)N(c2ccccc2)c2ccccc21.Cl (centres undefined) | 24 | – |
| Cl.O=C1N(c2ccccc2)c2ccccc2C1(CCCCO)Cc1ccncc1 (centres undefined) | 29 | – |
| Cl.O=C(CCC1(Cc2ccncc2)C(=O)N(c2ccccc2)c2ccccc21)c1ccc(F)cc1 (centres undefined) | 11 | – |
| O=C1N(c2ccccc2)c2ccccc2C1(O)Cc1ccncc1 (centres undefined) | 8 | – |
| CCOC(=O)CCC1(Cc2ccncc2)C(=O)N(c2ccccc2)c2ccccc21.Cl (centres undefined) | 57 | – |
| Cl.O=C(O)CCCC1(Cc2ccncc2)C(=O)N(c2ccccc2)c2ccccc21 (centres undefined) | 0 | – |
| Cl.N#CCCCCCCC1(Cc2ccncc2)C(=O)N(c2ccccc2)c2ccccc21 (centres undefined) | 19 | – |
